This is an account of results in ChEMBL document CHEMBL1275254 (2010).

The term MIC denotes the lowest concentration that inhibits growth of the organism.

The test system of the assay is Burkholderia pseudomallei. Put plainly: Antimicrobial activity against Burkholderia pseudomallei Bp227 harboring deleted (bpeAB-oprA)::FRT gene after 24 hrs by broth microdilution method. In kind it is functional. (Dilution methods test growth across graded concentrations, often in twofold steps.)

GENTAMICIN: the minimum inhibitory concentration (MIC) turned out to be 256 µg/mL.
